Target: T1, polycystin-2 (Homo sapiens, UniProt Q13563, C331S/C344S)
T1 construct: expressed in transfected cells
T1 sequence (Q13563 1-968 C331S/C344S): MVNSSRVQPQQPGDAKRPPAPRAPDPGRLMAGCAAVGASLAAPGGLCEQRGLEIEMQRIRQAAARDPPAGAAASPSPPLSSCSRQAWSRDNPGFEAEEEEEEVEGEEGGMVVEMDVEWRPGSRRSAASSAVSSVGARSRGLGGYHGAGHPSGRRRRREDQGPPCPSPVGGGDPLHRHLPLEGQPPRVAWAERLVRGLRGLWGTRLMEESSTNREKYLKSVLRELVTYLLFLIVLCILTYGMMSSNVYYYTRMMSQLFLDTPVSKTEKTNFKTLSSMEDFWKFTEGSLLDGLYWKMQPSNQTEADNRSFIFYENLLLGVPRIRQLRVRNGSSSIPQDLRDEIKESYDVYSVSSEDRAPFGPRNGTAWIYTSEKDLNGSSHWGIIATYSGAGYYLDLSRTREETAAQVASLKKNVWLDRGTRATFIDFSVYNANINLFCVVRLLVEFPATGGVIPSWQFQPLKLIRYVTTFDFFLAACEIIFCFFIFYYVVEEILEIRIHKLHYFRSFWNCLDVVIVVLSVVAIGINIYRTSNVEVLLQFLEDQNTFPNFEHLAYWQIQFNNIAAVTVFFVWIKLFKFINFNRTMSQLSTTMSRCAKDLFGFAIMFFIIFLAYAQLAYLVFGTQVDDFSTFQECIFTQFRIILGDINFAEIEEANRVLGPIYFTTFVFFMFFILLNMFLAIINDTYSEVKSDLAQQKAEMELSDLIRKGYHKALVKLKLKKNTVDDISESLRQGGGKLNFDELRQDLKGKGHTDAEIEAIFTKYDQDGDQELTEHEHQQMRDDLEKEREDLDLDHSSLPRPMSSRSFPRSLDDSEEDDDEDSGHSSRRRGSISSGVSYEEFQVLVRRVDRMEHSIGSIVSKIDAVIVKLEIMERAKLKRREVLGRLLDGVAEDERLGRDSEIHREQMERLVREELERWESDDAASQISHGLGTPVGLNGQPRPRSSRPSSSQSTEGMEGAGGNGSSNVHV
Assay type: cell-based
Conditions: C331S:C334S double mutant

[Gd] [gadolinium]
Effect on C331S:C334S channel cilia current: retaining its sensitivity to pore block
